Here are results for 15 compounds from patent US12637461B2, “Compounds for the activation of AMPK” (PFIZER INC., priority 2022, dated 2026).

This test has as its target T1, human AMPK α2β2γ3 (Homo sapiens, UniProt O43741+P54646+Q9UGI9).
T1 construct: expressed in transfected cells; host or cells: HEK293AD cells, MaxCyte bulk electroporation
Briefly: Primary cellular assay: γ3 associated phospho-Thr172 AMPK detection (custom pAMPK Surefire AlphaLISA) in α2β2γ3 bulk transiently transfected HEK293 cells. Format: cell-based. As to conditions: activation of human AMPK α2β2γ3 (γ3 pThr172 AMPK signal) in transiently transfected HEK293 cells, 20 minutes compound incubation; for Emax: 20 min, read-out: Assay GMean Asy. Max (%); for Emax / Assay GMean Asy. Max (%): geometric mean of the asymptotic max; for EC50: geometric mean EC50, read-out: Assay GMean EC50. The procedure: Primary Cellular Assay—γ3 Associated Phospho-Thr172 AMPK Detection in α2β2γ3 Bulk Transiently Transfected HEK293 Cells
The cellular potencies of the compounds were evaluated using a custom pAMPK Surefire AlphaLISA designed to assess γ3 associated phospho-Thr172 AMPK and modulation by small molecules in AMPK α2β2γ3 transiently transfected HEK293 cells.
A pAMPK Surefire AlphaLISA (PE-ASLU-PAMPK) assay available through Perkin Elmer was modified to selectively assess γ3 pThr172 AMPK content (as opposed to total pThr172 AMPK) by labeling a γ3 antibody with a CaptSure™ tag and substituting it for the total α1c/α2 AMPK labeled antibodies in the kit. In the modified assay, the overall abundance of γ3 AMPK is recognized by the CaptSure γ3 antibody and the phosphorylated AMPK is recognized by biotinylated pThr172 antibody. Subsequent reactivity with streptavitin donor beads and anti CaptSure conjugated acceptor beads brings the molecules into close proximity. Upon excitation at 680 nm, the donor bead converts ambient oxygen to a more excited singlet state which reacts with the acceptor bead and emits light at 520 to 620 nm. The intensity of the signal is proportional to the level of γ3 associated pThr172 AMPK phosphorylation.
In short, AMPK-α2+β2+γ3 MaxCyte bulk-transfected HEK293AD cells were thawed in growth media (DMEM High glucose+10% FBS) in a collagen-coated T150 flask and the cells were allowed to adhere and grow overnight in a 37° C. incubator. The following day, the cells were harvested and resuspended in plating medium (DMEM Low glucose+10% FBS) at a concentration of 100,000 cells per mL and 50 μL of this cell suspension was added to all wells of a 384-well plate using a Multidrop Combi. The cells were allowed to adhere and grow for 2 days in a 37° C. incubator. On assay day, compounds were diluted in 100% dimethyl sulfoxide (DMSO) in a 11 dose, half log dilution scheme and spotted in the cell plates at 1000× the final concentration. Compound incubations were performed in plating media for 20 minutes. Cells were washed with PBS, lysed and the signal was generated by subsequent additions of RB1 reagent from the kit, 1:1000 CaptSure γ3 labeled antibody in 1× immunoassay buffer, Anti-CaptSure acceptor beads and Streptavitin donor beads at final concentration of […]. The γ3 pThr172 AMPK signal was developed using EnVision™ multilabel reader (Perkin Elmer) using Alphascreen settings. The fluorescence emission was used to calculate the % effect relative to the HPE (30 μM) and ZPE (DMSO). EC50 curves were generated with the ActivityBase software using the XLfit model 205 to determine EC50 and Emax values.
For screening purposes, bulk AMPK-α2+β2+γ3 MaxCyte bulk transfection into HEK293AD cells were generated to support SAR screening as follows.
HEK293AD cells were seeded into 10 flasks at 2.7×10^7 cells per flask. The following day 12 mL of Trypl E dissociation reagent were added to each flask to lift the cells and the cells were then spun at 300×g for 5 minutes. Cells were washed once in MaxCyte EP buffer and then resuspended in MaxCyte EP buffer at 1×10^8 cells per mL. For transfection, 500×10^6 cells in 500 μl MaxCyte EP buffer were placed in a CL1.1 Processing Assembly (electroporation cell) with 1 mg/mL ([…]) of each of the plasmids pcDNA3.1(+)-human AMPK alpha 2, pcDNA3.1(+)-human AMPK beta 2 and pcDNA3.1(+)-human AMPK gamma 3 and the electroporation was carried out on the MaxCyte STX using the HEK293 electroporation protocol. Following electroporation, cells were transferred to a T175 flask containing growth medium (DMEM High glucose+10% FBS) and allowed to recover for 25 minutes, then the cells were resuspended to final volume of 900 mL and distributed into 6XT175 flasks and allowed to adhere and grow overnight in a 37° C. incubator. […]
On the technique in general: Alpha assays give light when donor and acceptor beads are brought close together.

T1 sequence (P54646 whole entry): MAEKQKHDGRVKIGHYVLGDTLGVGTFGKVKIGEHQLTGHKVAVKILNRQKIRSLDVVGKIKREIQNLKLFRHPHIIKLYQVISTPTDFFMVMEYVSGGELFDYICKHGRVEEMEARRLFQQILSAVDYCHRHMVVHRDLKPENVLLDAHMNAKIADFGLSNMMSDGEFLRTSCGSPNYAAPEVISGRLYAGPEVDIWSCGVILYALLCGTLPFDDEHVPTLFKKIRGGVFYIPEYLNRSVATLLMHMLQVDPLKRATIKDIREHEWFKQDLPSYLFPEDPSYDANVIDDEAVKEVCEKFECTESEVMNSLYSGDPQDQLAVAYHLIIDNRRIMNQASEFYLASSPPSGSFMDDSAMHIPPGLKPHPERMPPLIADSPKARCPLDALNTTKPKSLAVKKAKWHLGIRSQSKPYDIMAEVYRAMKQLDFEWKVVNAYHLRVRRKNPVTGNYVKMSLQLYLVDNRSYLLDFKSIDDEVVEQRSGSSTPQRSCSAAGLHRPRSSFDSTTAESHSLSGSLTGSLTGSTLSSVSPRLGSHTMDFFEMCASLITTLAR
T1 sequence (O43741 whole entry): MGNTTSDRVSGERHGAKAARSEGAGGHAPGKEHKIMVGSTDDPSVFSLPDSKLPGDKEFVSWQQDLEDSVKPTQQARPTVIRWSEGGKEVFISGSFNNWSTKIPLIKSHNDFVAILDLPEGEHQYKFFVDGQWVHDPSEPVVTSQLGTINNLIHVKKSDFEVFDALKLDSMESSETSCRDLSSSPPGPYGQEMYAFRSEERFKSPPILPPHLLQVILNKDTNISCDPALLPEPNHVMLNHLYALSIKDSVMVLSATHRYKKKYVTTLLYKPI
T1 sequence (Q9UGI9 whole entry): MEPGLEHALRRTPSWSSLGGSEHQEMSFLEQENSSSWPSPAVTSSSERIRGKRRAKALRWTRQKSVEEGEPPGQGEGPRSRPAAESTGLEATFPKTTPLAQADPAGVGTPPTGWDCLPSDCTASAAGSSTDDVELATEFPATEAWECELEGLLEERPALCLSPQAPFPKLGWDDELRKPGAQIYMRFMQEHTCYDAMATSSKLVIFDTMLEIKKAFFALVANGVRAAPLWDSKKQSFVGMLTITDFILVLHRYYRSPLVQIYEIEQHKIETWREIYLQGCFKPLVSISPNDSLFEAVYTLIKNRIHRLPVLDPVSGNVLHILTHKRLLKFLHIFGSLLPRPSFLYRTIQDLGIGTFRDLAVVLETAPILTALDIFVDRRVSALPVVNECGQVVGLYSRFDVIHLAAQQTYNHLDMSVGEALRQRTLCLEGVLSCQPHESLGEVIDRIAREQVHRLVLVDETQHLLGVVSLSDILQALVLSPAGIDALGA

Usually EC50 stands for the concentration that produces a half-maximal response. For `Cn1cc(F)c(N2C[C@](C)(c3cccc(Cl)c3F)c3c(cnc(NC4CN(C(=O)CC(F)(F)F)C4)c3F)C2=O)n1` [compound 63, (4R)-4-(3-chloro-2-fluorophenyl)-5-fluoro-2-(4-fluoro-1-methyl-1H-pyrazol-3-yl)-4-methyl-6-{[1-(3,3,3-trifluoropropanoyl)azetidin-3-yl]amino}-3,4-dihydro-2,7-naphthyridin-1(2H)-one], the Emax came to 90% and the EC50 amounted to 55.1 nM.
In the same order, the values of `Cn1cncc1C(=O)N1CC(Nc2ncc3c(c2F)[C@@](C)(c2cccc(Cl)c2F)CN(c2ccc(CO)cn2)C3=O)C1` [compound 58, (4R)-4-(3-chloro-2-fluorophenyl)-5-fluoro-2-[5-(hydroxymethyl)pyridin-2-yl]-4-methyl-6-{[1-(1-methyl-1H-imidazole-5-carbonyl)azetidin-3-yl]amino}-3,4-dihydro-2,7-naphthyridin-1(2H)-one] are 74.6% and 113 nM.
The matching figures for `C[C@]1(c2cccc(Cl)c2F)CN(c2ccc(CO)cn2)C(=O)c2cnc(NC3CN(C(=O)N4C[C@@H]5C[C@H]4CO5)C3)c(F)c21` [Example 22, (4R)-4-(3-Chloro-2-fluorophenyl)-5-fluoro-2-[5-(hydroxymethyl)pyridin-2-yl]-4-methyl-6-({1-[(1 S,4S)-2-oxa-5-azabicyclo[2.2.1]heptane-5-carbonyl]azetidin-3-yl}amino)-3,4-dihydro-2,7-naphthyridin-1(2H)-one]: 136% and 44.7 nM.
In the same order, the values of `Cn1cc(F)c(N2CC(C)(c3cccc(Cl)c3F)c3c(cnc(N[C@@H]4CCN(C(=O)N5C[C@@H]6C[C@H]5CO6)C4)c3F)C2=O)n1` (single isomer, unassigned) [Example 25] are 52.2% and 160 nM.
Take `Cn1cc(F)c(N2CC(C)(c3cccc(Cl)c3F)c3c(ccc(NC4CN(CC(=O)N5CCC5)C4)c3F)C2=O)n1` (stereo not drawn) [compound 92, 6-({1-[2-(azetidin-1-yl)-2-oxoethyl]azetidin-3-yl}amino)-4-(3-chloro-2-fluorophenyl)-5-fluoro-2-(4-fluoro-1-methyl-1H-pyrazol-3-yl)-4-methyl-3,4-dihydroisoquinolin-1(2H)-one, from P18 (ENANT-2)]: the EC50 was determined as 58.9 nM and the “Assay GMean Asy. Max (%)” value worked out at 109%.
Turning to `CN(C(=O)CN1CC(Nc2ncc3c(c2F)[C@@](C)(c2cccc(Cl)c2F)CN(c2nn(C)cc2F)C3=O)C1)C1CC1` [Example 11, 2-(3-{[(5R)-5-(3-Chloro-2-fluorophenyl)-4-fluoro-7-(4-fluoro-1-methyl-1H-pyrazol-3-yl)-5-methyl-8-oxo-5,6,7,8-tetrahydro-2,7-naphthyridin-3-yl]amino}azetidin-1-yl)-N-cyclopropyl-N-methylacetamide], the Emax amounted to 160% and the EC50 was 22.7 nM.
The matching figures for `C[C@]1(c2cccc(Cl)c2F)CN(c2ccc(CO)cn2)C(=O)c2cnc(NC3CN(C(=O)[C@@H]4C[C@@H]4F)C3)c(F)c21` [compound 52, (4R)-4-(3-chloro-2-fluorophenyl)-5-fluoro-6-({1-[(1S,2S)-2-fluorocyclopropane-1-carbonyl]azetidin-3-yl}amino)-2-[5-(hydroxymethyl)pyridin-2-yl]-4-methyl-3,4-dihydro-2,7-naphthyridin-1(2H)-one]: 65.4% and 47.4 nM.
Turning to `CC1(c2cccc(Cl)c2F)CN(c2ncccc2F)C(=O)c2cnc(NC3CN(C(=O)C4(O)CC4(C)C)C3)nc21` (single isomer, unassigned) [Example 28, 8-(3-Chloro-2-fluorophenyl)-6-(3-fluoropyridin-2-yl)-2-{[1-(1-hydroxy-2,2-dimethylcyclopropane-1-carbonyl)azetidin-3-yl]amino}-8-methyl-7,8-dihydropyrido[4,3-d]pyrimidin-5(6H)-one], the EC50 was 571 nM and the “Assay GMean Asy. Max (%)” value came out at 98.9%.
On to `Cn1ccc(N2C[C@](C)(c3cccc(Cl)c3F)c3c(cnc(NC4CN(C(=O)[C@@H]5C[C@@H]5F)C4)c3F)C2=O)n1` [compound 54, (4R)-4-(3-chloro-2-fluorophenyl)-5-fluoro-6-({1-[(1S,2S)-2-fluorocyclopropane-1-carbonyl]azetidin-3-yl}amino)-4-methyl-2-(1-methyl-1H-pyrazol-3-yl)-3,4-dihydro-2,7-naphthyridin-1(2H)-one], for which the Emax worked out at 79.5% and the EC50 turned out to be 58.1 nM.
On to `Cn1cc(F)c(N2C[C@](C)(c3cccc(Cl)c3F)c3c(cnc(NC4CN(C(=O)[C@H]5C[C@@H]5F)C4)c3F)C2=O)n1` [Example 8, (4R)-4-(3-Chloro-2-fluorophenyl)-5-fluoro-6-({1-[(1R,2S)-2-fluorocyclopropane-1-carbonyl]azetidin-3-yl}amino)-2-(4-fluoro-1-methyl-1H-pyrazol-3-yl)-4-methyl-3,4-dihydro-2,7-naphthyridin-1(2H)-one], for which the Emax was determined as 58.2% and the EC50 was 63.8 nM.
For `CC1(c2cccc(Cl)c2F)CN(c2ccc3cncn3c2)C(=O)c2cnc(NC3CN(C(=O)[C@@H]4C[C@@H]4F)C3)nc21` (single isomer, unassigned) [compound 79], the Emax came to 121% and the EC50 was 2830 nM.
In the case of `CC1(c2cccc(Cl)c2F)CN(c2ncccc2F)C(=O)c2cnc(NC3CN(C(=O)C4(O)CC4(C)C)C3)nc21` (single isomer, unassigned) [Example 29, 8-(3-Chloro-2-fluorophenyl)-6-(3-fluoropyridin-2-yl)-2-{[1-(1-hydroxy-2,2-dimethylcyclopropane-1-carbonyl)azetidin-3-yl]amino}-8-methyl-7,8-dihydropyrido[4,3-d]pyrimidin-5(6H)-one], the EC50 stood at 181 nM and the “Assay GMean Asy. Max (%)” value was determined as 216%.
As to `Cn1cc(F)c(N2C[C@](C)(c3cccc(Cl)c3F)c3c(cnc(NC4CN(CC(=O)N(CC(F)(F)F)C5CC5)C4)c3F)C2=O)n1` [compound 74, 2-(3-{[(5R)-5-(3-chloro-2-fluorophenyl)-4-fluoro-7-(4-fluoro-1-methyl-1H-pyrazol-3-yl)-5-methyl-8-oxo-5,6,7,8-tetrahydro-2,7-naphthyridin-3-yl]amino}azetidin-1-yl)-N-cyclopropyl-N-(2,2,2-trifluoroethyl)acetamide], the Emax is 129% and the EC50 is 39.9 nM.
As for `Cn1cc(F)c(N2C[C@](C)(c3cccc(Cl)c3F)c3c(cnc(NC4CN(C(=O)C(C)(O)C5CC5)C4)c3F)C2=O)n1` (single isomer, unassigned) [Example 10], the EC50 was found to be 21.3 nM and the “Assay GMean Asy. Max (%)” value stood at 89.6%.
In the case of `C[C@]1(c2cccc(Cl)c2F)CN(c2ccccc2F)C(=O)c2cnc(NC3CN(C(=O)[C@@H]4C[C@@H]4F)C3)c(F)c21` [compound 56, (4R)-4-(3-chloro-2-fluorophenyl)-5-fluoro-6-({1-[(1S,2S)-2-fluorocyclopropane-1-carbonyl]azetidin-3-yl}amino)-2-(2-fluorophenyl)-4-methyl-3,4-dihydro-2,7-naphthyridin-1(2H)-one], the Emax was 92.9% and the EC50 was 256 nM.
